Results as given in US7671181B2, “Polynucleotides encoding coccidian parasite casein kinase I, a chemotherapeutic target for antiprotozoal agents” (Merck Sharp & Dohme Corp., priority 2004, dated 2010).

Legend:
TgCKIα = TgCKIα (Toxoplasma gondii, UniProt Q6QNM1); test: Casein kinase assay, TgCKIα (recombinant FLAGTgCKIα or partially purified native); type: biochemical; set-up: Km(app), native TgCKIα; other: substrate titration, 2 μM ATP; IC50, nativeTgCKIα; other: partially purified native enzyme from Toxoplasma tachyzoites; sensitivity of native TgCKIα phosphopeptide kinase activity (HiTrapQ fractions 5-9); other: 0.2 μM hymenialdisine or 1
Chain of TgCKIα (Q6QNM1 whole entry, looked up): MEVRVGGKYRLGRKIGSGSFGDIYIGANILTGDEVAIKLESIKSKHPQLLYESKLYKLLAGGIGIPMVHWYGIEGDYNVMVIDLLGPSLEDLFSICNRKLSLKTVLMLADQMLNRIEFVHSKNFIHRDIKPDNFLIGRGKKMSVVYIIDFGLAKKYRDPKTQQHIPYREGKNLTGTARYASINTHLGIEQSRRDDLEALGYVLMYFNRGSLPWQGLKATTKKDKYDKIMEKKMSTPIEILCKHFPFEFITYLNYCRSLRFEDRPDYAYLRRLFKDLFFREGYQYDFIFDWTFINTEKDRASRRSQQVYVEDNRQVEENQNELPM
Method: Protein kinase assays—Casein kinase activity was assayed essentially as described (Donald, R. G. K. et al., 2002, supra) using 96-well phosphocellulose plates (MAPH-NOB, Millipore; Billerica, Mass.) to capture ^33P-phosphorylated peptide or casein substrates. Kinase reactions were carried out in 40 μl volumes containing 25 mM Hepes, pH 7.4, 10 mM MgCl2, 20 mM β-glycerophosphate, 1 mM DTT, 250 μM substrate, 1 mg/mL BSA, 2 μM ATP, and 0.01 μM [γ-^33P]ATP (Perkin-Elmer, 3000 Ci/mmol). […] Casein (5% solution), partially dephosphorylated α-casein and β-casein were obtained from Sigma.
(§1) A variety of commercially available peptide substrates were evaluated. From Calbiochem (San Diego, Calif.): CKI substrate (RRKDLHDDEEDEAMSITA; SEQ ID NO:13); CKII substrate (RRADDSDDDDD; SEQ ID NO:14); Syntide-2 substrate (PLARTLSVAGLPGKK; SEQ ID NO:15); CaM kinase II substrate (281-291) (MHKNETVECLK; SEQ ID NO:16). From Promega: CKI substrate (DDDEESITRR; SEQ ID NO:17) and kemptide (LRRASLG; SEQ ID NO:18). From New England Biolabs (Beverly, Mass.): CKI phosphopeptide substrate (KRRRALS(p)VASLPGL; SEQ ID NO:19), and CKII substrate (RRREEETEEE; SEQ ID NO:20). PKG assays were performed with kemptide as substrate and 10 μM cGMP. CDPK was assayed with Syntide-2 substrate and in the presence of 100 μM CaCl2.
Purification of recombinant CKI enzymes—E. coli strain BL21 Origami™ (Novagen) was transformed with FLAGTgCKIα and FLAGTgCKIβ expression vectors, and colonies were expanded into 250 mL LB cultures grown at 37° C. Expression was induced with 1 mM IPTG once cultures had reached an OD600nm of 0.3-0.5, and the transformed bacteria were harvested 4-6 hours later. Cell pellets were resuspended in 15 mL of lysis buffer containing protease inhibitors and lysates prepared as described by the supplier (Bugbuster™ reagents, Novagen). The concentration of NaCl in the lysate was adjusted to 0.5 M, and 0.5 mL of FLAG-agarose beads were added (Sigma). The mixture was allowed to rock in a Nutator mixer (Becton-Dickinson; San Jose, Calif.) for 2 hours at 4° C. The slurry was then poured into an empty column and the matrix washed with 50 mL of wash buffer (50 mM Tris-HCl, pH 7.4, 0.5M NaCl, 10% glycerol, 1 mM DTT, 1 mM EDTA). […] Protein was measured with a micro-BCA reagent (Pierce) following a TCA-sodium deoxycholate step to remove residual FLAG peptide (Brown et al., 1989, Anal. Biochem. 180:136-139). […]
(§2) Preparations of FLAGTgCKIα and FLAGTgCKIβ were purified further on a SMART system FPLC 0.1 mL MonoQ anion exchange column (Pharmacia; New York, N.Y.) equilibrated in buffer A (50 mM Hepes, pH 7.4, 10% glycerol, 1 mM DTT) at room temperature. […] A linear salt gradient was applied (0-500 mM in 3 mL at 100 μl/min) and 100 μl fractions were collected and analyzed by SDS-PAGE and for CKI activity. […]

TgCDPK1 = molecular target: T1, TgCDPK1 (Toxoplasma gondii, UniProt Q9BJF5); test: CDPK assay with Syntide-2, T. gondii CDPK1; type: biochemical
T1 construct: The TgCDPK1 open reading frame was amplified by PCR from a Toxoplasma cDNA library; made in house
T1 sequence (Q9BJF5 entry or part of it): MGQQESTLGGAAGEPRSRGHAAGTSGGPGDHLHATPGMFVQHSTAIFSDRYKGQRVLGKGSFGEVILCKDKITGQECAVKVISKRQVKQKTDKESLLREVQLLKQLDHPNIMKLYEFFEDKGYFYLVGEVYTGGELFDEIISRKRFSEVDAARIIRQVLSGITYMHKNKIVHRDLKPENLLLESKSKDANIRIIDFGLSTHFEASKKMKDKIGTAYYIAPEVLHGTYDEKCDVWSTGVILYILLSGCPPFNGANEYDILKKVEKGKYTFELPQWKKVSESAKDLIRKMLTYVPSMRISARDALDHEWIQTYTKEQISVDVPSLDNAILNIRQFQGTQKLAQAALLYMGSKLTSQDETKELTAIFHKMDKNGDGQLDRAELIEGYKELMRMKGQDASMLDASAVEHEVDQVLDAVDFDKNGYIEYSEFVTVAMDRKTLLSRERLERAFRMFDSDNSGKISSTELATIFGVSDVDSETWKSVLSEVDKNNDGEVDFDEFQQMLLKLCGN
Method: (§3) Protein kinase assays—Casein kinase activity was assayed essentially as described (Donald, R. G. K. et al., 2002, supra) using 96-well phosphocellulose plates (MAPH-NOB, Millipore; Billerica, Mass.) to capture ^33P-phosphorylated peptide or casein substrates. Kinase reactions were carried out in 40 μl volumes containing 25 mM Hepes, pH 7.4, 10 mM MgCl2, 20 mM β-glycerophosphate, 1 mM DTT, 250 μM substrate, 1 mg/mL BSA, 2 μM ATP, and 0.01 μM [γ-^33P]ATP (Perkin-Elmer, 3000 Ci/mmol). The reactions were initiated by the addition of enzyme and incubated at room temperature for 60 min. Casein (5% solution), partially dephosphorylated α-casein and β-casein were obtained from Sigma.
as §1
Purification of recombinant TgCDPK1 and TgPKG—The TgCDPK1 open reading frame was amplified by PCR from a Toxoplasma cDNA library, using primers based on the published sequence (Kieschnick et al., 2001, supra): sense primer, […] (SEQ ID NO:44); and, antisense primer, […] (SEQ ID NO:45). A C-terminal FLAG epitope tag was appended to the TgCDPK1 open reading frame by an additional round of PCR amplification (KOD polymerase) and the resulting DNA fragment was sub-cloned into a tubulin promoter expression vector (Donald and Liberator, 2002, supra). […]

FLAGEtCDPK1 = FLAGEtCDPK1 (Eimeria tenella, UniProt Q3HNM4); test: Protein kinase assay, FLAGEtCDPK1; type: biochemical; conditions: recombinant enzyme, dose response titrations
Chain of FLAGEtCDPK1 (Q3HNM4 entry or part of it): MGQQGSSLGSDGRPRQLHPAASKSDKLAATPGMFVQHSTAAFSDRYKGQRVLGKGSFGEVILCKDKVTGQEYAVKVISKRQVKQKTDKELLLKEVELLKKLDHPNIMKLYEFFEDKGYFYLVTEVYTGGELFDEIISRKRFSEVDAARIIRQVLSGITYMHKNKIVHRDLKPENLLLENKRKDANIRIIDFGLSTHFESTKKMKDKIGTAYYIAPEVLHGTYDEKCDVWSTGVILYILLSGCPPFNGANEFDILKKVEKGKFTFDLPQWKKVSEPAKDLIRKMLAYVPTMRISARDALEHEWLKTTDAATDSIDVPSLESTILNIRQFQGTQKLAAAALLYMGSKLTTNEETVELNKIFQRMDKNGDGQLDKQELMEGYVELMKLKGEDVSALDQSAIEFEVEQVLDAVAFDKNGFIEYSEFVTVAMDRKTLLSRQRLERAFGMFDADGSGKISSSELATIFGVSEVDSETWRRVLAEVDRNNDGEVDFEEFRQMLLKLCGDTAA
Method: as §3, §1

EtCKIα = EtCKIα (Eimeria tenella, UniProt Q6QNL9); test: Casein kinase assay, partially purified native EtCKIα; type: biochemical; conditions: partially purified native enzyme from Eimeria oocysts; read-out: IC50, nativeEtCKIα
Chain of EtCKIα (Q6QNL9 whole entry): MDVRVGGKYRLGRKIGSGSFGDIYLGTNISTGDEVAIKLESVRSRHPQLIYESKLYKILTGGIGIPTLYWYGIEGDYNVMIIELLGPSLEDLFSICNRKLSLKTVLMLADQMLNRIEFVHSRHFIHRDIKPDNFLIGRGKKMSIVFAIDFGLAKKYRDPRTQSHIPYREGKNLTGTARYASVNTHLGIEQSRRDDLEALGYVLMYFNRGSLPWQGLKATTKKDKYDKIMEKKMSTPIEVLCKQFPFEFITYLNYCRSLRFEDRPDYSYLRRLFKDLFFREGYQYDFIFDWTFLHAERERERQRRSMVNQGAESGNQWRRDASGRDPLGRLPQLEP
Method: as §3, §1
Partial purification of native EtCKIα—The inability to stably express recombinant EtCKIα in T. gondii provided impetus to purify native enzyme from E. tenella parasites (slide 5). A lysate was prepared from 2×10^10 unsporulated oocysts using previously published procedures (Gurnett, A. M. et al., 2002, supra). The first two steps of the purification scheme used were essentially scaled-up from the method described for the purification of native TgCKIα. The lysate was subjected to preparative HiLoad Q anion-exchange chromatography and fractions eluted with a NaCl gradient (0-1 M NaCl). […]

EtPKG = molecular target: T2, EtPKG (Eimeria tenella, UniProt Q8MMZ8); test: PKG assay with kemptide, native EtPKG; type: biochemical; conditions: native enzyme from Eimeria oocysts; read-out: IC50, nativeEtPKG
T2 construct: Eimeria oocysts (EtCKIα and EtPKG); from tissue; host or cells: Eimeria oocysts
T2 sequence (Q8MMZ8 whole entry): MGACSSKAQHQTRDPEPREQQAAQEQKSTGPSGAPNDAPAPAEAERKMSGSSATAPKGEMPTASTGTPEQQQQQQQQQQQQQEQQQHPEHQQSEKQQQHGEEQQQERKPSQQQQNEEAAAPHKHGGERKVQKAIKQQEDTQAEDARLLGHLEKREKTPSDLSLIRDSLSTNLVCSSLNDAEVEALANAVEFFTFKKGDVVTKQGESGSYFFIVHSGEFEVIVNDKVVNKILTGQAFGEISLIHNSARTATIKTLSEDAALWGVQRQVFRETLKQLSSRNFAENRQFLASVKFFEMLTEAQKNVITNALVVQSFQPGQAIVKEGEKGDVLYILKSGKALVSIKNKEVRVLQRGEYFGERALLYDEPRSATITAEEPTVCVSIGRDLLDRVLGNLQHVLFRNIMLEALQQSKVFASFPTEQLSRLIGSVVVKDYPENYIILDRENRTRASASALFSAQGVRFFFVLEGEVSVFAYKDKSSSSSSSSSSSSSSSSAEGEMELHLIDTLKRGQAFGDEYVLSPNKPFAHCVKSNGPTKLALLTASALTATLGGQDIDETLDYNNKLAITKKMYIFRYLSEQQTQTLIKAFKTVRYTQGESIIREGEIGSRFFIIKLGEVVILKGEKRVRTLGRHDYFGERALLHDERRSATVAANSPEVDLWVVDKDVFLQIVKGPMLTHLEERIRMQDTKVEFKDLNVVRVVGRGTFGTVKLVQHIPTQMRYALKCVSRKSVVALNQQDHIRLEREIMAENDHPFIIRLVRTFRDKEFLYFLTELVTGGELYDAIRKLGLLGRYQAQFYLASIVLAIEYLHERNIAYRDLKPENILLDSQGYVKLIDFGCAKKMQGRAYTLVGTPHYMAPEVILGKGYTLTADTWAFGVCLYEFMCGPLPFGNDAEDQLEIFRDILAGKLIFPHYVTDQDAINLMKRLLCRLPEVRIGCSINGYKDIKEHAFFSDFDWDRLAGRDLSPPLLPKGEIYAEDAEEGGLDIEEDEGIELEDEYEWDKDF
Method: as §3, §1

FLAGTgCDPK3 = FLAGTgCDPK3 (Toxoplasma gondii, UniProt A0A125YQG4); test: Protein kinase assay, FLAGTgCDPK3; type: biochemical; conditions: read-out: IC50, FLAGTgCDPK3; recombinant enzyme, dose response titrations
Chain of FLAGTgCDPK3 (A0A125YQG4 entry or part of it): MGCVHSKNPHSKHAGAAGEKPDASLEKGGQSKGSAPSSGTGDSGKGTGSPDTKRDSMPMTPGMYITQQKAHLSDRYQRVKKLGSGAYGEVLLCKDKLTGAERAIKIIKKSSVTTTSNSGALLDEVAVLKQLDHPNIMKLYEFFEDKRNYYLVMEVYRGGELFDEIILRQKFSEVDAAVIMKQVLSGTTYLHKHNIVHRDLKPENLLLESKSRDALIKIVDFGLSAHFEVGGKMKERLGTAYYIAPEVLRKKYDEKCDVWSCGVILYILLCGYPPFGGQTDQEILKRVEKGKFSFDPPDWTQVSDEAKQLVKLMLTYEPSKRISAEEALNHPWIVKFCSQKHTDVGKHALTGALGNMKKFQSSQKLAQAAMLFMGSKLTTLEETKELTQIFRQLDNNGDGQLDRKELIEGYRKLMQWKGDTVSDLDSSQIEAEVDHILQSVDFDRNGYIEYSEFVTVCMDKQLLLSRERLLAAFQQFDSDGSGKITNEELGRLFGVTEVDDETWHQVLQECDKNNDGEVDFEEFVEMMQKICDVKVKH
Method: as §3, §1

[1] = molecular target: T3, Toxoplasma gondii calmodulin domain-like protein kinase 1 (FLAGTgCDPK1, recombinant) (Toxoplasma gondii, UniProt Q9BJF5); test: Kinase assay, inhibition of recombinant TgCDPK1; type: biochemical; conditions: CDK inhibitor study (text to Table 2)
T3 construct: FLAG (C); made in house; host or cells: transgenic Toxoplasma gondii parasites
T3 sequence (Q9BJF5 entry or part of it): as the sequence (Q9BJF5 entry or part of it) above
Method: as §3
A variety of commercially available peptide substrates were evaluated. […]
Purification of recombinant TgCDPK1 and TgPKG—The TgCDPK1 open reading frame was amplified by PCR from a Toxoplasma cDNA library, using primers based on the published sequence (Kieschnick et al., 2001, supra): sense primer, […] […] A C-terminal FLAG epitope tag was appended to the TgCDPK1 open reading frame by an additional round of PCR amplification (KOD polymerase) and the resulting DNA fragment was sub-cloned into a tubulin promoter expression vector (Donald and Liberator, 2002, supra). […]

T. gondii = test: Parasite growth inhibition, modified [3H]-uracil uptake assay in infected HFF cell monolayers; type: cell-based, Toxoplasma gondii; conditions: Toxoplasma gondii, HFF
From the text: Host cells and parasite cultures—RH strain or RH ΔHXGPRT strain tachyzoites of T. gondii were maintained by serial passage in confluent monolayers of human foreskin fibroblasts (“HFF”) as described (Roos, D. S. et al., 1994, Methods Cell Biol. 45:27-63). A modified [^3H]-uracil uptake assay (Pfefferkorn, E. R. and Pfefferkorn, L. C., 1977, J. Protozool. 24:449-453) adapted for use in 96-well scintillation plates (Cytostar-T, Amersham; Piscataway, N.J.) was used to measure parasite growth inhibition. Each well, previously seeded with HFF cells, was inoculated with T. gondii tachyzoites (2×10^4) in 200 μl of growth media containing 2 μCi [5,6]-^3H-uracil (Perkin-Elmer NEN; Boston, Mass.) and serially diluted compound. Following incubation at 37° C. for 36-48 hours, tritium-incorporation into host cell monolayers was directly counted in a microplate scintillation counter (MicroBeta, PerkinElmer-Wallac).
The only other CDK inhibitor with sub-μM activity against T. gondii was indirubin-3′-monoxime, which gave an IC50 value of 500 nM.

[2] = molecular target: T4, Toxoplasma gondii casein kinase I alpha (TgCKIα), recombinant FLAG-tagged or native, SEQ ID NO:4 (Toxoplasma gondii, UniProt Q6QNM1); test: Casein kinase assay, inhibition of TgCKIα (recombinant or native forms); type: biochemical
T4 construct: same protein
T4 sequence (Q6QNM1 whole entry): as the sequence (Q6QNM1 whole entry, looked up) above
Method: as §3
A variety of commercially available peptide substrates were evaluated. From Calbiochem (San Diego, Calif.): CKI substrate (RRKDLHDDEEDEAMSITA; SEQ ID NO:13); CKII substrate (RRADDSDDDDD; SEQ ID NO:14); Syntide-2 substrate (PLARTLSVAGLPGKK; SEQ ID NO:15); CaM kinase II substrate (281-291) (MHKNETVECLK; SEQ ID NO:16). […]
as §2

| SMILES | IC50 (TgCKIα) | IC50 (TgCDPK1) | IC50 (FLAGEtCDPK1) | IC50 (EtCKIα) | IC50 (EtPKG) | IC50 (FLAGTgCDPK3) | IC50 [1] | IC50 (T. gondii) | IC50 [2] |
| --- | --- | --- | --- | --- | --- | --- | --- | --- | --- |
| CN1CCC(c2ccn3c(-c4ccnc(N)n4)c(-c4ccc(F)cc4)nc3c2)CC1 [Compound 39, 4[2-(4-Fluorophenyl)1-7-(1-methylpiperidin-4-yl)imidazo[1,2-a]pyridin-3-yl]pyrimidin-2-amine] | 15 nM | 0.5 nM | 126 nM | 69 nM | 0.5 nM | > 10000 nM | – | – | – |
| O=C1Nc2ccccc2/C1=C1/Nc2ccccc2/C1=N\O [indirubin-3′-monoxime] | – | – | – | – | – | – | 175 nM | 500 nM | 172 nM |
